Among the data in US10508104B2, “6-hydroxy-5-(phenyl/heteroarylsulfonyl)pyrimidin-4(1H)-one as APJ agonists” (Bristol-Myers Squibb Company, priority 2016, dated 2019) are EC50 values, retold here.

The target in the first assay is human APJ receptor (Homo sapiens (Human), UniProt P35414). Description: Intracellular cAMP accumulation assay (APJ hcAMP, HTRF). The assay is classed as cell-based. To be noted: HEK293 cells stably expressing human APJ receptor; inhibition of forskolin-mediated cAMP production; read-out: Human APJ cAMP EC50 Potency range. The procedure: Intracellular cAMP Accumulation Assay
Chain of human APJ receptor (P35414 whole entry): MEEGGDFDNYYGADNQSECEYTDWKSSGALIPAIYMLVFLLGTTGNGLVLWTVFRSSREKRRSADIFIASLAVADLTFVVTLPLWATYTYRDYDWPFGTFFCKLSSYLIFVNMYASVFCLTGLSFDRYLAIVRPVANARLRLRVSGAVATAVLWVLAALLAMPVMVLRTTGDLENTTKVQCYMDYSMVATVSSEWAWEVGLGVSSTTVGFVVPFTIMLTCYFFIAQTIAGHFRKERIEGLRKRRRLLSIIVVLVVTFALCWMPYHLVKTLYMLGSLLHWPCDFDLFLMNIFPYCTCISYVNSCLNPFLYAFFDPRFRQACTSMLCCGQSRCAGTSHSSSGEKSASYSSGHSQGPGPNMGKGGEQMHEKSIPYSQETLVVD
HEK293 cells stably expressing human APJ receptor were used to assess the activity of compounds. Cultured cells were detached and resuspended in the cAMP Homogeneous Time-Resolved Fluorescence (HTRF) assay buffer (Cisbio cat; #62AM4PEJ). The assay was performed in 384-well assay plates (Perkin-Elmer; cat #6008289) according to assay protocol provided by the manufacturer. Serial dilutions of a compound together with assay buffer containing […] and 2 μM forskolin were added to each well containing 5,000 cells and incubated for 30 minutes at room temperature. Subsequently, cAMP D2 reagent was added in the lysis buffer followed by the EuK antibody (Cisbio; cat #62AM4PEJ) and incubated for 60 min. The fluorescence emission ratio was measured using fluorometer. The intracellular cAMP concentrations (compound-stimulated inhibition of forskolin-mediated cAMP production) were calculated by extrapolation from a standard curve using known cAMP concentrations. The EC50 values were obtained by fitting the data to a sigmoidal concentration-response curve with variable slope.
The EC50 value of each compound is presented at the end of the example description.
The biological activity of the exemplified compounds of this invention determined by the assay described above is shown at the end of each example.
On to `CCCCc1nc(=O)c(S(=O)(=O)c2ccc(-c3ccc(F)cc3)cc2)c(O)n1-c1c(OC)cccc1OC` [Example 7, 2-Butyl-1-(2,6-dimethoxyphenyl)-5-((4′-fluoro-[1,1′-biphenyl]-4-yl)sulfonyl)-6-hydroxypyrimidin-4(1H)-one], for which the EC50 (as a rule, the concentration that produces a half-maximal response) is 0.01 to 10 nM.

The assay is the same for the next values; noted with them: human APJ, intracellular cAMP accumulation; read-out: Human APJ cAMP EC50 Potency range.
For `CCCCc1nc(=O)c(S(=O)(=O)c2ccc(F)cc2)c(O)n1-c1c(OC)cccc1OC` [Example 4, 2-butyl-1-(2,6-dimethoxyphenyl)-5-(4-fluorobenzenesulfonyl)-6-hydroxy-1,4-dihydropyrimidin-4-one], the half-maximal effective concentration (EC50) lay in the range of 0.01 to 10 nM.
Consider `CCCCc1nc(=O)c(S(=O)(=O)Cc2ccccc2)c(O)n1-c1c(OC)cccc1OC` [Example 5, 2-butyl-1-(2,6-dimethoxyphenyl)-6-hydroxy-5-phenylmethanesulfonyl-1,4-dihydropyrimidin-4-one], for which the EC50 is 10 to 100 nM.
`CCCCc1nc(=O)c(S(=O)(=O)c2ccc(C(F)(F)F)cn2)c(O)n1-c1c(OC)cccc1OC` [Example 6, 2-butyl-1-(2,6-dimethoxyphenyl)-6-hydroxy-5-{[5-(trifluoromethyl)pyridin-2-yl]sulfonyl}-1,4-dihydropyrimidin-4-one]: the concentration for a half-maximal effect (EC50) lay within 0.01 to 10 nM.
Consider `CCCCc1nc(=O)c(S(=O)(=O)c2ccc(-c3ccccc3)cc2)c(O)n1-c1c(OC)cccc1OC` [Example 8, 2-butyl-1-(2,6-dimethoxyphenyl)-6-hydroxy-5-(4-phenylbenzenesulfonyl)-1,4-dihydropyrimidin-4-one], for which the EC50 was in the range of 0.01 to 10 nM.
Still for that read-out and setting: the same measure for `CCCCc1nc(=O)c(S(=O)(=O)c2ccc(-c3cn(C)nc3C(F)(F)F)cc2)c(O)n1-c1c(OC)cccc1OC` [Example 9, 2-butyl-1-(2,6-dimethoxyphenyl)-6-hydroxy-5-{4-[1-methyl-3-(trifluoromethyl)-1H-pyrazol-4-yl]benzenesulfonyl}-1,4-dihydropyrimidin-4-one]: 0.01 to 10 nM; for `CCCCc1nc(=O)c(S(=O)(=O)c2ccc(-c3cnn(C(C)C)c3)cc2)c(O)n1-c1c(OC)cccc1OC` [Example 10, 2-butyl-1-(2,6-dimethoxyphenyl)-6-hydroxy-5-{4-[1-(propan-2-yl)-1H-pyrazol-4-yl]benzenesulfonyl}-1,4-dihydropyrimidin-4-one]: 0.01 to 10 nM; for `COc1cccc(OC)c1-n1c(CCC(C)C)nc(=O)c(S(=O)(=O)c2ccc(-c3ccccc3)cc2)c1O` [Example 11, 1-(2,6-dimethoxyphenyl)-6-hydroxy-2-(3-methylbutyl)-5-(4-phenylbenzenesulfonyl)-1,4-dihydropyrimidin-4-one]: 0.01 to 10 nM.
On the same count and under the same terms, in the case of `COc1cccc(OC)c1-n1c(CCC(C)C)nc(=O)c(S(=O)(=O)c2ccc(-c3ccc(F)cc3)cc2)c1O` [Example 12, 1-(2,6-dimethoxyphenyl)-5-[4-(4-fluorophenyl)benzene-sulfonyl]-6-hydroxy-2-(3-methylbutyl)-1,4-dihydropyrimidin-4-one] it was 0.01 to 10 nM.
For `COc1cccc(OC)c1-n1c(CCC(C)C)nc(=O)c(S(=O)(=O)c2ccc(-c3ccc(Cl)cc3)cc2)c1O` [Example 14, 5-[4-(4-chlorophenyl)benzene-sulfonyl]-1-(2,6-dimethoxyphenyl)-6-hydroxy-2-(3-methylbutyl)-1,4-dihydropyrimidin-4-one], the 50% effective concentration (EC50) lay in the range of 0.01 to 10 nM.
In the case of `CCCCc1nc(=O)c(S(=O)(=O)c2ccc(-c3ccc(F)nc3)cc2)c(O)n1-c1c(OC)cccc1OC` [Example 15, 2-butyl-1-(2,6-dimethoxyphenyl)-5-[4-(6-fluoropyridin-3-yl)benzenesulfonyl]-6-hydroxy-1,4-dihydropyrimidin-4-one], the 50% effective concentration (EC50) is 0.01 to 10 nM.
In the case of `CCCCc1nc(=O)c(S(=O)(=O)c2ccc(-c3ccc(C#N)nc3)cc2)c(O)n1-c1c(OC)cccc1OC` [Example 16, 5-(4-{[2-butyl-1-(2,6-dimethoxyphenyl)-6-hydroxy-4-oxo-1,4-dihydropyrimidin-5-yl]sulfonyl)phenyl)pyri-dine-2-carbonitrile], the EC50 lay within 0.01 to 10 nM.
On the same count and under the same terms, in the case of `COc1cccc(OC)c1-n1c(CCC(C)C)nc(=O)c(S(=O)(=O)c2ccc(-c3ccc(C#N)nc3)cc2)c1O` [Example 17, 5-(4-{[1-(2,6-dimethoxyphenyl)-6-hydroxy-2-(3-methylbutyl)-4-oxo-1,4-dihydropyrimidin-5-yl]sulfonyl}phenyl)pyri-dine-2-carbonitrile] it was 0.01 to 10 nM; in that of `COc1cccc(OC)c1-n1c(CCC(C)C)nc(=O)c(S(=O)(=O)c2cccc(-c3ccc(F)cc3)c2)c1O` [Example 18, 1-(2,6-dimethoxyphenyl)-5-[3-(4-fluorophenyl)benzene-sulfonyl]-6-hydroxy-2-(3-methylbutyl)-1,4-dihydropyrimidin-4-one], 0.01 to 10 nM.
Take `COc1cccc(OC)c1-n1c(CCC(C)C)nc(=O)c(S(=O)(=O)c2cccc(-c3ccccc3)c2)c1O` [Example 19, 1-(2,6-dimethoxyphenyl)-6-hydroxy-2-(3-methylbutyl)-5-(3-phenylbenzenesulfonyl)-1,4-dihydropyrimidin-4-one]: the EC50 was in the range of 0.01 to 10 nM.
Take `COc1cccc(OC)c1-n1c(CCC(C)C)nc(=O)c(S(=O)(=O)c2cccc(-c3cn(C)nc3C(F)(F)F)c2)c1O` [Example 20, 1-(2,6-dimethoxyphenyl)-6-hydroxy-5-{3-[1-methyl-3-(trifluoromethyl)-1H-pyrazol-4-yl]benzenesulfonyl}-2-(3-methylbutyl)-1,4-dihydropyrimidin-4-one]: the concentration for a half-maximal effect (EC50) is 0.01 to 10 nM.
In the case of `COc1cccc(OC)c1-n1c(CCC(C)C)nc(=O)c(S(=O)(=O)c2ccccc2-c2ccc(F)cc2)c1O` [Example 21, 1-(2,6-dimethoxyphenyl)-5-[2-(4-fluorophenyl)benzene-sulfonyl]-6-hydroxy-2-(3-methylbutyl)-1,4-dihydropyrimidin-4-one], the 50% effective concentration (EC50) lay within 10 to 100 nM.
As for `COc1cccc(OC)c1-n1c(CCC(C)C)nc(=O)c(S(=O)(=O)c2ccccc2-c2ccccc2)c1O` [Example 22, 1-(2,6-dimethoxyphenyl)-6-hydroxy-2-(3-methylbutyl)-5-(2-phenylbenzenesulfonyl)-1,4-dihydropyrimidin-4-one], the EC50 lay in the range of 10 to 100 nM.
On the same count and under the same terms, the same measure for `COc1cccc(OC)c1-n1c(CCC(C)C)nc(=O)c(S(=O)(=O)c2cccc(-c3ccc(F)nc3)c2)c1O` [Example 23, 1-(2,6-dimethoxyphenyl)-5-[3-(6-fluoropyridin-3-yl)benzenesulfonyl]-6-hydroxy-2-(3-methylbutyl)-1,4-dihydropyrimidin-4-one]: 0.01 to 10 nM; for `COc1cccc(OC)c1-n1c(CCC(C)C)nc(=O)c(S(=O)(=O)c2ccccc2-c2ccc(F)nc2)c1O` [Example 24, 1-(2,6-dimethoxyphenyl)-5-[2-(6-fluoropyridin-3-yl)benzenesulfonyl]-6-hydroxy-2-(3-methylbutyl)-1,4-dihydropyrimidin-4-one]: 10 to 100 nM.
Regarding `COc1cccc(OC)c1-n1c(CCC(C)C)nc(=O)c(S(=O)(=O)c2ccccc2-c2cn(C)nc2C(F)(F)F)c1O` [Example 25, 1-(2,6-dimethoxyphenyl)-6-hydroxy-5-{2-[1-methyl-3-(trifluoromethyl)-1H-pyrazol-4-yl]benzenesulfonyl}-2-(3-methylbutyl)-1,4-dihydropyrimidin-4-one], the EC50 is 100 to 300 nM.
As for `CCCCc1nc(=O)c(S(=O)(=O)c2ccc(-c3ccc(F)cc3C)cc2)c(O)n1-c1c(OC)cccc1OC` [Example 26, 2-butyl-1-(2,6-dimethoxyphenyl)-5-[4-(4-fluoro-2-methylphenyl)benzenesulfonyl]-6-hydroxy-1,4-dihydropyrimidin-4-one], the 50% effective concentration (EC50) was in the range of 0.01 to 10 nM.
Turning to `CCCCc1nc(=O)c(S(=O)(=O)c2ccc(-c3ccnc(C)c3)cc2)c(O)n1-c1c(OC)cccc1OC` [Example 27, 2-butyl-1-(2,6-dimethoxyphenyl)-6-hydroxy-5-[4-(2-methylpyridin-4-yl)benzenesulfonyl]-1,4-dihydropyrimidin-4-one], the half-maximal effective concentration (EC50) lay in the range of 0.01 to 10 nM.
Regarding `CCCCc1nc(=O)c(S(=O)(=O)c2ccc(-c3ccc(N4CCOCC4)nc3)cc2)c(O)n1-c1c(OC)cccc1OC` [Example 28, 2-butyl-1-(2,6-dimethoxyphenyl)-6-hydroxy-5-{4-[6-(morpholin-4-yl)pyridin-3-yl]benzenesulfonyl}-1,4-dihydropyrimidin-4-one], the EC50 was in the range of 0.01 to 10 nM.
In the case of `CCCCc1nc(=O)c(S(=O)(=O)c2ccc(-c3ccccc3OC3CC3)cc2)c(O)n1-c1c(OC)cccc1OC` [Example 29], the EC50 was 0.01 to 10 nM.
Turning to `CCCCc1nc(=O)c(S(=O)(=O)c2ccc(-c3cccnc3OC)cc2)c(O)n1-c1c(OC)cccc1OC` [Example 30, 2-butyl-1-(2,6-dimethoxyphenyl)-6-hydroxy-5-[4-(2-methoxypyridin-3-yl)benzenesulfonyl]-1,4-dihydropyrimidin-4-one], the concentration giving a half-maximal response (EC50) was in the range of 0.01 to 10 nM.
Still for that read-out and setting: in the case of `CCCCc1nc(=O)c(S(=O)(=O)c2ccc(-c3ccc(C(C)(C)O)cc3)cc2)c(O)n1-c1c(OC)cccc1OC` [Example 31, 2-butyl-1-(2,6-dimethoxyphenyl)-6-hydroxy-5-{4-[4-(2-hydroxypropan-2-yl)phenyl]benzene-sulfonyl}-1,4-dihydropyrimidin-4-one] it was 0.01 to 10 nM.
For `COc1cccc(OC)c1-n1c(COC(C)C)nc(=O)c(S(=O)(=O)c2ccc(-c3ccc(F)nc3)cc2)c1O` [Example 32, 1-(2,6-dimethoxyphenyl)-5-[4-(6-fluoropyridin-3-yl)benzenesulfonyl]-6-hydroxy-2-[(propan-2-yloxy)methyl]-1,4-dihydropyrimidin-4-one], the EC50 fell in the range of 0.01 to 10 nM.
